The record followed here is patent US5574059A, “Treating disorders mediated by vascular smooth muscle cell proliferation” (priority 1995, dated 1996).

Structures are written as SMILES. Where two headings read alike, the source gives them in different places.

Test [1] can be described thus: Example I: patient with intermittent claudication, iliac artery plaques. Conditions: over 30 days oral; idazoxan 50 and 75 mg/day, UK 14,304 125, naphazoline 125, cirazoline 75, agmatine 900 mg/day. Type of test: in vivo, human. An excerpt:
A person presents with progressive symptoms of intermittent claudication in both legs.

Another test relates to I2 imidazoline receptors. In words: inhibition of 3H-idazoxan (5 nM) binding to rat aortic smooth muscle cell membranes. Conditions: 3H-idazoxan 5 nM. The method, then: Binding to I2 imidazoline receptors is determined by the following assay. Membranes are prepared from cultured cells for ligand binding as described in Regunathan, S., et al, Biochem. Pharmacol. 45, 1667-1675 (1993) and Regunathan, S., et al, J. Neurosci. Res. 34, 681-688 (1993) and the disclosure in these on this is incorporated herein by reference. In particular, harvested rat aortic smooth muscle cells are homogenized in Hepes-sucrose buffer (pH 7.4) with a Teflon-glass homogenizer and centrifuged at 1000 × g for 10 minutes. The pellets are suspended in ice-cold Tris-HCl buffer (pH 7.7) with 5mM ethylene diamine tetracetic acid and homogenized using a Polytron (Brinkman Instruments) for 10 seconds. The homogenate is centrifuged at 40,000 × g for 30 minutes to produce a membrane pellet. The membrane pellet is washed three times by resuspending in buffer and re-centrifuging. The washed pellet is suspended in fresh Tris-HCl buffer (pH 7.4) to provide approximately 100 μg protein per assay tube. Binding assays are performed in Tris-HCl buffer (pH 7.7) using 5 nM of […]. Non-specific binding is defined by 100 μM of unlabelled idazoxan which will inhibit the specific binding of ^3 H-idazoxan. Thus the binding remaining in the presence 100 μM of idazoxan is due to non-specific binding and this will be substracted from total binding to calculate the specific binding. Following incubation at 25° C. for 30 minutes, reaction is terminated by rapid vacuum filtration over Whatman GF/B filters and washed with 10 ml of ice-cold buffer. Filters are suspended in scintillation fluid and radioactivity counted in a liquid scintillation counter. Membrane protein is assayed by Coomassie Blue method (Pierce) using bovine serum albumin as standard.
Determination of inhibition constant (Ki) for each drug is determined as follows: The binding of ^3 H-idazoxan to membranes of vascular smooth muscle cells is determined in the presence of 0.1 nM to 100 μM concentrations of potential drug. The percent inhibition of specific binding of ^3 H-idazoxan by each concentration is calculated and plotted against concentration. The data is analyzed by non-linear curve fitting program, LIGAND and the IC50 value for each potential drug is calculated. The affinity for each drug (Ki) for I2 imidazoline receptors is calculated using the formula Ki =IC50 /1+L/Kd where L is the concentration of ^3 H-idazoxan used for binding and Kd is the dissociation constant for ^3 H-idazoxan for I2 imidazoline receptors. The dissociation constant (Kd) is determined by Scatchard analysis of the saturation binding of ^3 H-idazoxan using the formula [formula] where B and F are the amount of bound and free ligand, respectively, and Bmax is the number of binding sites.
Primary cultures of rat-aortic smooth muscle cells were prepared by a modification (described in Erlinge, Do, et al, Am. J. Physiol. 265, H1089-1097, 1993) of the method of Meyer-Lehnert and Schrier (Meyer-Lehnert, H., et al, Hypertension 13,350-361, 1989), the disclosure of these cited articles being incorporated herein by reference. Briefly, rats were killed by anesthetic overdose and the aorta were removed and incubated with collagenase (2 mg/ml) in Dulbecco's modified Eagle's minimum essential medium (DMEM). The vessel was stripped of adventitia, cut longitudinally and the intima scraped away. After further collagenase treatment, the remaining tissue was passed 20 times through 18 and 16 gauge needles. The resulting cell suspension was centrifuged at 500 × g for 5 minutes and resuspended in DMEM containing penicillin (100 units/ml), streptomycin (100 μg/ml), 2 mM L-glutamine and 10% fetal calf serum. The suspended cells were plated in T-75 flasks, cultured until confluent, and subcultured in 100 mm plates. The confluent cells were harvested and membranes were prepared. Cell viability was determined by trypan blue exclusion.

Test [2] deals with rat aortic smooth muscle cells. Description: antagonism of the antiproliferative effect in serum-stimulated smooth muscle cells. The format is cell-based. Conditions: Rattus norvegicus; in presence of tolazoline 100 μM; read-out: IC50 of idazoxan in presence of tolazoline. The method, then:
Inhibition of serum-stimulated proliferation of rat aortic smooth muscle cells is determined as follows: The antiproliferative effect of potential drug is determined by measuring the incorporation of ^3 H-thymidine into cellular DNA. Exposure of quiescent vascular smooth muscle cell to serum, which contains many growth factors, results in a large increase in cellular proliferation as measured by ^3 H-thymidine incorported into DNA. The inhibitory effect of potential drug on serum-stimulated proliferation is tested by adding a drug before the addition of serum and determining if the serum-stimulated proliferation is reduced. […] In that event, antagonizing of the antiproliferative effect of idazoxan is determined by adding antagonist before the addition of idazoxan to serum-stimulated vascular smooth muscle cells.
After 48 hours, the cells were starved in 0.5% FCS for another 48 hours to decrease proliferation and induce quiescence. The medium was replaced by serum-free medium 24 hours prior to addition of drug (drugs are described below) and 10% fetal calf serum or only 10% fetal calf serum in the case of the control. The cells were then incubated for 24 hours and ^3 H-thymidine (1 μCi/well) was added at hour 20. At the end of the 24 hour period, the medium was aspirated and the cells were washed three times with phosphate-buffered saline and twice with ice-cold trichloroacetic acid. Fixed cells were then solubilized in 0.2M NaOH and sonicated. A 100 μl aliquot was used for scintillation counting.
To test this, the effect of tolazoline (100 μM) on the concentration/response curve was determined.

Test [3] can be described thus: Example II: patient with narrowing of right common carotid artery, balloon angiography. Type of test: in vivo, human. Conditions: idazoxan 50 or 75 mg/day two weeks before and 3 months after balloon angiography; UK 14,304 125, cirazoline 60, naphazoline 125, agmatine 900 mg/day. The method, then:
A person presents with a history of intermittent brief episodes of transient monocular blindness in the right eye associated with clumsiness and weakness of the left arm and leg. Angiography indicates substantial narrowing of the right common carotid artery. They are with treated with idazoxan at a dosage of 50 or 75 mg/day for two weeks preceding balloon angiography and for 3 months thereafter.

For test [4], the system named is human coronary artery smooth muscle cells. Description: 3H-thymidine incorporation in normal human coronary artery smooth muscle cells. The format is cell-based. The procedure:
In this experiment the antiproliferative action of idazoxan was tested in normal human coronary artery smooth muscle cells (Clonetics Corp.). Proliferation of smooth muscle cells was measured as described above by the incorporation of ^3 H-thymidine into cellular DNA. Following the incubation of semi-confluent smooth muscle cells in serum-free medium for 24 hr, growth is stimulated by either 5% fetal calf serum (FCS) or platelet derived growth factor (PDGF) (10 ng/well) in the presence and absence of various concentrations of idazoxan. […] In Table 4, "DPM" stands for disintegrations per minute which is a measure of the radioactivity incorporated into the cellular DNA by 3H-thymidine.
In general terms: Dividing cells build labelled thymidine or BrdU into new DNA.

One may read the Ki as the dissociation constant of the complex between target and ligand, obtained from inhibition or displacement. As a reminder, the IC50 is the concentration that inhibits the measured activity by half. For `c1ccc2c(c1)OCC(C1=NCCN1)O2` (stereo not drawn) [Idazoxan, 2-[2-(1,4-benzodioxanyl)]-2-imidazoline], the “symptoms of intermittent claudication” value in test [1] is given as “stabilization of symptoms”. Also, the Ki was ~10 nM in the test on I2 imidazoline receptors ("about", read-out: Ki, inhibition of 3H-idazoxan binding) and 8.5 ± 0.35 nM in the test on I2 imidazoline receptors (Table 2, rat aortic smooth muscle cell membranes, read-out: Ki). For the same compound, the IC50 in test [2] amounted to 55000 nM. The “symptoms and restenosis of the vessel” value in test [3] is given as “Symptoms disappear without evidence of restenosis of the vessel”. In addition, the 3H-thymidine incorporated in test [4] (FCS (5%) + idazoxan 1 μM) is reported as 5540 ± 430 DPM/well; in test [4] (FCS (5%) + idazoxan 10 μM), 2370 ± 230 DPM/well; in test [4] (FCS (5%) + idazoxan 100 μM), 430 ± 98 DPM/well; in test [4] (PDGF (10 ng/well) + idazoxan 1 μM), 3220 ± 180 DPM/well; in test [4] (PDGF (10 ng/well) + idazoxan 10 μM) it was 1890 ± 210 DPM/well; in test [4] (PDGF (10 ng/well) + idazoxan 100 μM), 340 ± 60 DPM/well. Moreover, the “incorporation of 3H-thymidine, in words” value in test [4] (stimulated by FCS or PDGF) is recorded as “inhibited the incorporation of ^3 H-thymidine”.
